Results taken from US9139585B2 (Merck Sharp & Dohme Corp., priority 2011, dated 2015).
Read-outs that look alike come from different tables or passages of the source.

Legend:
Kir1.1 (ROMK1) = Kir1.1 (ROMK1) (Homo sapiens (Human), UniProt P48048); test: Electrophysiology Assay (whole cell voltage clamp, IonWorks Quattro); assay type: cell-based
Description: Several assays may be used to measure functional inhibition of the ROMK channel by compounds of the instant invention. One assay that can be used is an electrophysiology assay that measures the electrical current that is generated as potassium permeates through the channel.
Block of Kir1.1 (ROMK1) currents was examined by whole cell voltage clamp (Hamill et. al. Pfluegers Archives 391:85-100 (1981)) using the IonWorks® Quattro automated electrophysiology platform (Molecular Devices, Sunnyvale, Calif.). Chinese hamster ovary cells stably expressing Kir1.1 channels were maintained in T-75 flasks in cell culture media in a humidified 10% CO2 incubator at 37° C. Prior to an experiment, Kir1.1 expression was induced by overnight incubation with 1 mM sodium butyrate. On the day of the experiment, cells were dissociated with 2.5 ml of Versene™ (Invitrogen 15040-066) for approximately 6 minutes at 37° C. and suspended in 10 ml of bath solution containing (in mM): 150 NaCl, 10 KCl, 2.7 CaCl2, 0.5 MgCl2, 5 HEPES, pH 7.4. After centrifugation, the cell pellet was resuspended in approximately 4.0 ml of bath solution and placed in the IonWorks® instrument. The intracellular solution consisted of (in mM): 80 K gluconate, 40 KCl, 20 KF, 3.2 MgCl2, 3 EGTA, 5 Hepes, pH 7.4. Electrical access to the cytoplasm was achieved by perforation in 0.13 mg/ml amphotericin B for 4 minutes. Amphotericin B (Sigma A-4888) was prepared as a 40 mg/ml solution in DMSO.
Voltage protocols and current recordings were performed using the IonWorks® HT software/hardware system. Currents were sampled at 1 kHz. No correction for liquid junction potentials was used. The test pulse, consisting of a 100 ms step to 0 mV from a holding potential of −70 mV, followed by a 100 ms voltage ramp from −70 mV to +70 mV, was applied before and after a 6 minutes compound incubation period. Test compounds were prepared by diluting DMSO stock solutions into the bath solution at 3× the final concentration and placed in the instrument in 96-well polypropylene plates. Current amplitudes were measured using the IonWorks® software. To assess compound potency, the fractional block during the voltage step to 0 mV was calculated in Microsoft® Excel (Microsoft, Redmond, Calif.), and dose-response curves were fitted with Igor Pro 4.0 (WaveMetrics, Lake Oswego, Oreg.).

hROMK (hKir1.1) = hROMK (hKir1.1) (Homo sapiens (Human), UniProt P48048); test: Thallium Flux Assay (ROMK channel functional thallium flux, FLIPR-Tetra); assay type: cell-based
Description: Another ROMK functional assay makes use of the ability of thallium to permeate through open ROMK channels and increase the fluorescence of a dye previously loaded into the cells. Under control conditions, cells loaded with dye and exposed to thallium-containing medium display a time-dependent increase in fluorescence, the rate of which depends on number of functional channels. When cells are incubated in the presence of a channel inhibitor, the increase in fluorescence is attenuated in a concentration-dependent manner, and IC50 values of inhibition by compounds can be accurately determined. This assay has been established with cell lines expressing either human, or rat ROMK channels, and operates in 384-well format.
HEK293 cells stably expressing hROMK (hKir1.1) were grown at 37° C. in a 10% CO2 humidified incubator in complete growth media: Dulbecco's Modified Eagle Medium supplemented with non-essential amino acids, Penicillin/Streptomycin/Glutamine, G418 and FBS. At >80% confluency, the media was aspirated from the flask and the sample was rinsed with 10 ml Calcium/Magnesium-free PBS. […] To dislodge the cell, the side of the flask was gently banged with a hand. The cells were triturated completely and then transferred to 25 ml complete media. The sample was then centrifuged at 1,500 rpm for 6 minutes, followed by resuspension in complete growth media and then cell concentration was determined. […] Under ideal growth conditions and appropriate tissue culture practices, this cell line is stable for 40-45 passages.
FluxOR Kit Components (Invitrogen F10017)
• FluxOR™ Reagent (Component A) • FluxOR™ Assay Buffer (Component B)—10× Concentrate • PowerLoad™ Concentrate (Component C)—100× Concentrate • Probenecid (Component D)—Lyophilized sample is kept at −20° C. Water soluble, 100× after solubilization in 1 ml water. […] Store at 4° C. • Thallium sulfate (Tl2SO4) Concentrate (Component G)—50 mM in water. Store at 4° C. • DMSO (dimethyl sulfoxide, Component H)—1 ml (100%) Reagent Preparation— FluxOR Working Solutions • 1000× FluxOR™ Reagent: Reconstitute a vial of component A in 100 μl DMSO; Mix well; Store 10 μl aliquots at −20° C. • 1× FluxOR™ Assay Buffer: Dilute Component B 10-fold with water; Adjust pH to 7.4 with Hepes/NaOH; Filter and store at 4° C. • Probenecid/Assay Buffer: 100 ml of 1× FluxOR™ Assay Buffer; 1 ml of reconstituted component D; Store at 4° C. • Loading Buffer (per microplate): 10 μl 1000× FluxOR™ Reagent; 100 μl component C; 10 ml Probenecid/Assay Buffer • Compound Buffer (per microplate): 20 ml Probenecid/Assay Buffer; 0.3 mM ouabain (10 mM ouabain in water can be stored in amber bottle/aluminum foil at room temperature);
Test compound • 1× FluxOR™ Chloride-Free Buffer: Prepare 1× working solution in water. Can be stored at room temperature • Stimulant Buffer (prepared at 5× final concentration in 1× FluxOR™ Chloride-Free Buffer): 7.5 mM Thallium sulfate and 0.75 mM Potassium sulfate (to give a final assay concentration of 3 mM Thallium/0.3 mM Potassium). Store at 4° C. when not in use. If kept sterile, this solution is good for months. Assay Protocol—
The ROMK channel functional thallium flux assay is performed in 384 wells, using the FLIPR-Tetra instrument. HEK-hKir1.1 cells are seeded in Poly-D-Lysine microplates and kept in a 37° C.-10% CO2 incubator overnight. On the day of the experiment, the growth media is replaced with the FluxOR™ reagent loading buffer and incubated, protected from light, at ambient temperature (23-25° C.) for 90 min. The loading buffer is replaced with assay buffer±test compound followed by 30 min incubation at ambient temperature, where the Thallium/Potassium stimulant is added to the microplate.
• 1. Seed HEK-hKir1.1 cells (50 μl at 20,000 cells/well) in 384-well PDL coated Microplates • 2. Allow cells to adhere overnight in humidified 37° C./10% CO2 incubator • 3. Completely remove cell growth media from microplate and replace with 25 μl loading buffer • 4.

[1] = Chinese hamster ovary cells stably expressing Kir1.1, block during voltage step to 0 mV, read-out: EP Assay IC50
[2] = HEK293 cells stably expressing hROMK (hKir1.1), read-out: Thallium Flux Assay IC50

Sequence of hROMK (hKir1.1) (P48048 whole entry): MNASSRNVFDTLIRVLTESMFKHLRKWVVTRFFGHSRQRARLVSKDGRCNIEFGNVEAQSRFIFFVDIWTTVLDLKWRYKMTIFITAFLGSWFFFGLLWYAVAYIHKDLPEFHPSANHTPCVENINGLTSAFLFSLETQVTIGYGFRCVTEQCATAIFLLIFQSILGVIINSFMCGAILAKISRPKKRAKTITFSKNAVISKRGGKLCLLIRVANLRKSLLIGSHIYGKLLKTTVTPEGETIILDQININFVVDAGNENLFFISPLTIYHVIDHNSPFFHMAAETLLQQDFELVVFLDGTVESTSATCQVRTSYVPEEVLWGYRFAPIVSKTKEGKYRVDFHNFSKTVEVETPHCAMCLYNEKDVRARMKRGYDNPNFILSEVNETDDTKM
Sequence of Kir1.1 (ROMK1) (P48048 whole entry, species assumed): as the sequence (P48048 whole entry) above

Cc1c([C@@H](O)CN2C[C@H]3CC[C@@H](C2)N3S(=O)(=O)c2ccc(-n3cnnn3)cc2)ccc2c1COC2=O [Example 16]
IC50 (Kir1.1 (ROMK1); read-out: EP Assay IC50): 54 nM | IC50 (hROMK (hKir1.1); Thallium Flux Assay IC50): 397 nM

COc1cc(C(O)CN2CCN(CC(O)c3ccc4c(c3)C[C@H](C)OC4=O)CC2)ncc1C#N (single isomer, unassigned) [Example 44B]
IC50 (Kir1.1 (ROMK1); [1]): 18 nM | IC50 (hROMK (hKir1.1); [2]): 243 nM

Cc1c([C@@H](O)CN2CCN(C[C@H](O)c3ccc4c(c3C)COC4=O)C3(CCCC3)C2)ccc2c1COC2=O [Example 1, 5,5′-{6,9-Diazaspiro[4.5]decane-6,9-diylbis[(1R)-1-hydroxyethane-2,1-diyl]}bis(4-methyl-2-benzofuran-1(3H)-one)]
IC50 (Kir1.1 (ROMK1); [1]): 134 nM | IC50 (hROMK (hKir1.1); [2]): 311 nM

Cc1cc(-n2cnnn2)ncc1[C@@H](O)CN1CCN(C[C@H](O)c2ccc3c(c2C)COC3=O)CC1 (single isomer, unassigned) [Example 35A]
IC50 (Kir1.1 (ROMK1); [1]): 29 nM | IC50 (hROMK (hKir1.1); [2]): 105 nM

Cc1c([C@@H](O)CN2CCCCN(C[C@H](O)c3ccc4c(c3C)COC4=O)CC2)ccc2c1COC2=O [Example 27, 5,5′-(1R,1′R)-2,2′-(1,4-Diazocane-1,4-diyl)bis(1-hydroxyethane-2,1-diyl)bis(4-methylisobenzofuran-1(3H)-one)]
IC50 (hROMK (hKir1.1); [2]): 697 nM

Cc1c([C@@H](O)CN2C[C@@H]3C[C@H]2CN3S(=O)(=O)c2ccc(C#N)cc2)ccc2c1COC2=O [Example 3, 4-((1S,4S)-5-((R)-2-Hydroxy-2-(4-methyl-1-oxo-1,3-dihydroisobenzofuran-5-yl)ethyl)-2,5-diazabicyclo[2.2.1]heptan-2-ylsulfonyl)benzonitrile]
IC50 (Kir1.1 (ROMK1); [1]): 200 nM | IC50 (hROMK (hKir1.1); [2]): 636 nM

Cc1nc(C(O)CN2C3CCC2C2CCC3N2C[C@H](O)c2ccc3c(c2C)COC3=O)ccc1C#N (stereo partly drawn) [Example 7, 6-(1-Hydroxy-2-{10-[(2R)-2-hydroxy-2-(4-methyl-1-oxo-1,3-dihydro-2-benzofuran-5-yl)ethyl]-9,10-diazatricyclo[4.2.1.1^2,5]dec-9-yl}ethyl)-2-methylpyridine-3-carbonitrile]
IC50 (Kir1.1 (ROMK1); [1]): 45 nM | IC50 (hROMK (hKir1.1); [2]): 115 nM

Cc1c([C@@H](O)CN2CCN(CCc3ccc4c(c3)CCOC4=O)CC2)ccc2c1COC2=O [Example 30, (R)-6-(2-(4-(2-Hydroxy-2-(4-methyl-1-oxo-1,3-dihydroisobenzofuran-5-yl)ethyl)piperazin-1-yl)ethyl)isochroman-1-one]
IC50 (Kir1.1 (ROMK1); [1]): 21 nM | IC50 (hROMK (hKir1.1); [2]): 56 nM

Cc1c([C@H](O)CN2CCN(CCc3ccc4c(c3)C[C@@H](C)OC4=O)CC2)ccc2c1COC2=O [Example 29, (R)-6-(2-(4-((S)-2-Hydroxy-2-(4-methyl-1-oxo-1,3-dihydroisobenzofuran-5-yl)ethyl)piperazin-1-yl)ethyl)-3-methylisochroman-1-one]
IC50 (Kir1.1 (ROMK1); [1]): 145 nM | IC50 (hROMK (hKir1.1); [2]): 185 nM

Cc1c([C@@H](O)CN2[C@@H]3CC[C@H]2CN(c2ccc(C#N)cn2)C3)ccc2c1COC2=O [Example 10, 6-((1R,5S)-8-((R)-2-Hydroxy-2-(4-methyl-1-oxo-1,3-dihydroisobenzofuran-5-yl)ethyl)-3,8-diazabicyclo[3.2.1]octan-3-yl)nicotinonitrile]
IC50 (Kir1.1 (ROMK1); [1]): 316 nM | IC50 (hROMK (hKir1.1); [2]): 640 nM

COc1cc(C(O)CN2C3CCC2C2CCC3N2C[C@H](O)c2ccc3c(c2C)COC3=O)ncc1C#N (single isomer, unassigned) [Example 6]
IC50 (Kir1.1 (ROMK1); [1]): 21 nM | IC50 (hROMK (hKir1.1); [2]): 26 nM

Cc1c([C@@H](O)CN2C3COCC2CN(CC(O)c2ccc4c(c2)C[C@@H](C)OC4=O)C3)ccc2c1COC2=O (single isomer, unassigned) [Example 24B]
IC50 (Kir1.1 (ROMK1)): 66 nM | IC50 (hROMK (hKir1.1); Thallium Flux Assay IC50): 36.1 nM

Cc1c([C@H](O)CN2CCN(CCc3ccc4c(c3)CCOC4=O)CC2)ccc2c1COC2=O [Example 31, (S)-6-(2-(4-(2-Hydroxy-2-(4-methyl-1-oxo-1,3-dihydroisobenzofuran-5-yl)ethyl)piperazin-1-yl)ethyl)isochroman-1-one]
IC50 (Kir1.1 (ROMK1); [1]): 564 nM | IC50 (hROMK (hKir1.1); [2]): 318 nM

Cc1c([C@@H](O)CN2C3CCC2C2CCC3N2CC(O)c2ccc(C#N)cn2)ccc2c1COC2=O (single isomer, unassigned) [Example 5]
IC50 (Kir1.1 (ROMK1); [1]): 197 nM | IC50 (hROMK (hKir1.1); [2]): 377 nM

Cc1c([C@@H](O)CN2C3CCC2C2CCC3N2CC(O)c2ccc(C#N)cn2)ccc2c1COC2=O (single isomer, unassigned) [Example 8]
IC50 (hROMK (hKir1.1); [2]): 915 nM

Cc1c([C@@H](O)CN2CCN(C[C@@H](O)c3ccc4c(c3)CCS4(=O)=O)CC2)ccc2c1COC2=O (single isomer, unassigned) [Example 43B]
IC50 (hROMK (hKir1.1); [2]): 52.4 nM

Cc1c([C@@H](O)CN2C3COCC2CN(CC(O)c2ccc4c(c2)C[C@@H](C)OC4=O)C3)ccc2c1COC2=O (single isomer, unassigned) [Example 24A]
IC50 (hROMK (hKir1.1); Thallium Flux Assay IC50): 2040 nM

Cc1c([C@@H](O)CN2CC3CCC2CN3S(=O)(=O)c2ccc(-n3cnnn3)cc2)ccc2c1COC2=O (single isomer, unassigned) [Example 17B]
IC50 (hROMK (hKir1.1); [2]): 997 nM

Cc1c([C@@H](O)CN2C3COCC2CN(CC(O)c2ccc(C#N)cn2)C3)ccc2c1COC2=O (stereo partly drawn) [Example 19, 6-(1-Hydroxy-2-(9-((R)-2-hydroxy-2-(4-methyl-1-oxo-1,3-dihydroisobenzofuran-5-yl)ethyl)-3-oxa-7,9-diazabicyclo[3.3.1]nonan-7-yl)ethyl)nicotinonitrile]
IC50 (hROMK (hKir1.1); [2]): 1620 nM

Cc1c([C@@H](O)CN2CCN(C[C@H](O)c3ccc4c(c3C)COC4=O)C3(CC3)C2)ccc2c1COC2=O [Example 4, 5,5′-(1R,1′R)-2,2′-(4,7-Diazaspiro[2.5]octane-4,7-diyl)bis(1-hydroxyethane-2,1-diyl)bis(4-methylisobenzofuran-1(3H)-one)]
IC50 (hROMK (hKir1.1); Thallium Flux Assay IC50): 635 nM
